For 19 compounds, IC50 results are on record in patent US20260250250A1, “3-(SULPHONYL OR SULFONIMIDOYL)PROP-2-EN-1-YL]-2-OXO-1,2-DIHYDROPYRIDINE-3-CARBOXAMIDE DERIVATIVES” (Flinder Therapeutics B.V., priority 2022, published 2026).

Assay [1] concerns bladder carcinoma RT4 cell line. In words: TNF-α-induced cytotoxicity assay (CellTiter-Glo viability). It is filed as cell-based. The settings on record: Homo sapiens, RT-4, 72 h. The protocol:
A viability assay, using bladder carcinoma RT4 cell line, was used for identifying the potential inhibitory effect of tested compounds on HOIP activity. The viability was determined by CellTiter-Glo Luminescent Cell Viability Assay (G7571, Promega) which measures the ability of generating a luminescent signal proportional to the amount of ATP present in living cells. The assay consists of a few steps: • a) the cells were routinely sub cultivated twice a week with standard complete growth medium composition; • b) cells were preparated for the assay by creating a cell suspension at the density of 0.05 mln cells/mL and dispensed into plates (ViewPlate-384, PerkinElmer) resulting in 1000 cells/well; • c) cells were stimulated with 1.25 ng/mL TNFα and with compounds and incubated for 72 h at 37° C. in the atmosphere with 5% CO2; and • d) for detection cytotoxicity was measured with CellTiter-Glo® Luminescent Cell Viability Assay based on the method described by the manufacturer.
A general note: Cellular ATP, detected with luciferase, serves as a proxy for viable cell number.

Another assay has as its system NF-κB signaling pathway. In words: Cell-based dual luciferase NF-κB reporter assay (HEK293 cells, TNF stimulated). The settings on record: Homo sapiens, HEK293. The protocol: Dual-luciferase reporter assay was designed to find inhibitors of HOIP affecting NF-κB signaling pathway. The assay was performed in HEK293 cells which were transfected with plasmids coding for Firefly and NanoLuc luciferases. The NanoLuc luciferase plasmid contains NF-κB response element which determines its expression.
The assay was run following standard dual-luciferase protocols. The assay consists of a few steps: • compounds were dispensed at a concentration range: 100-0.005 μM with a final DMSO concentration of 1% of final volume (25 μL); • cells were stimulated after 30 min with 2.5 ng/mL TNF; and • after 6 h Firefly and NanoLuc luciferase activities are determined according to the procedure described by the manufacturer of Nano-Glo Dual-Luciferase Reporter Assay System.

Assay [2] has as its target T1, human E3 ubiquitin-protein ligase RNF31 (HOIP) (Homo sapiens, UniProt Q96EP0).
T1 sequence (Q96EP0 695-1072 limits assumed): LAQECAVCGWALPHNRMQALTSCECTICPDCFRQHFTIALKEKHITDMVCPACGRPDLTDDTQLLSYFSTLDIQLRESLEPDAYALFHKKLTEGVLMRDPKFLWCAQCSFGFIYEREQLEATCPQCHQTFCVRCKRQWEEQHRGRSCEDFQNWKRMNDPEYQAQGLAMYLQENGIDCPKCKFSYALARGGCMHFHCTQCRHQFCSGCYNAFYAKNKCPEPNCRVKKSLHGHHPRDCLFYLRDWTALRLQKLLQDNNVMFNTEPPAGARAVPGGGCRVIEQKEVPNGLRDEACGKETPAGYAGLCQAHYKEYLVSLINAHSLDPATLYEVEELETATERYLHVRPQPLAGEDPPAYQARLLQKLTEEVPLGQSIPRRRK
In words: Cell-free HTRF-based HOIP inhibition assay. It is filed as biochemical. How it is done:
This assay was performed in the following steps: • a) synthesis of recombinant fragment of human E3 ubiquitin-protein ligase RNF31 (HOIP), expressed with purity >90% in E. coli system (the protein was prepared as 1 mg/mL stock in a standard formulation); • b) incubation of the compounds in a typical concentration range: 100-0.005 μM, at a final DMSO conc. 1% with a mixture of HOIP and ubiquitin activating enzyme E1 at 25° C., for 1 h at 25° C.; • c) followed by addition of a ubiquitination solution including E2 and substrates (the reaction proceeds for 2.5 h at 25° C.); and • d) HTRF detection was performed using a PHERAstar FSX (BMG Labtech) plate reader (excitation at 337 nm, dual emissions at 665 and 620 nm).
A general note: Time-resolved FRET reads energy transfer from a long-lived donor to a nearby acceptor.

With `CC1(C)CC1COC(=O)N1CCc2[nH]c(=O)c(C(=O)NC/C=C/S(=O)(=O)c3ccccc3)cc2C1` (stereo not drawn) [Example 73, (2,2-dimethylcyclopropyl)methyl 3-{[(2E)-3-(benzenesulfonyl)prop-2-en-1-yl]carbamoyl}-2-oxo-1,2,5,6,7,8-hexahydro-1,6-naphthyridine-6-carboxylate], the IC50 (usually the concentration that inhibits the measured activity by half) is at most 1000 nM in assay [1], at most 1000 nM with NF-κB signaling pathway and at most 100 nM in assay [2].

In the case of `COc1ccc(S(=N)(=O)/C=C/CNC(=O)c2cc3c([nH]c2=O)CCCC3)cc1F` (stereo not drawn) [Example 30, N-[(2E)-3-[(3-fluoro-4-methoxyphenyl)(imino)oxo-λ^6-sulfanyl]prop-2-en-1-yl]-2-oxo-1,2,5,6,7,8-hexahydroquinoline-3-carboxamide], the IC50 was at most 1000 nM in assay [1], at most 1000 nM in the assay with NF-κB signaling pathway and at most 100 nM in assay [2].

Consider `O=C(NC/C=C/S(=O)(=O)c1ccc(Cl)cc1)c1cc2ccccc2[nH]c1=O` [Example 28, N-[(2E)-3-(4-chlorobenzenesulfonyl)prop-2-en-1-yl]-2-oxo-1,2-dihydroquinoline-3-carboxamide], for which the IC50 in assay [1] is at most 1000 nM; in the assay with NF-κB signaling pathway it was at most 1000 nM; in assay [2], at most 100 nM.

Consider `O=C(NC/C=C/S(=O)(=O)c1ccc(Cl)cc1)c1cc2c([nH]c1=O)CCN(C(=O)OCC1CC1)C2` [Example 88, cyclopropylmethyl 3-{[(2E)-3-(4-chlorobenzenesulfonyl)prop-2-en-1-yl]carbamoyl}-2-oxo-1,2,5,6,7,8-hexahydro-1,6-naphthyridine-6-carboxylate], for which the IC50 is at most 1000 nM in assay [1], at most 1000 nM in the assay on NF-κB signaling pathway and at most 100 nM in assay [2].

Regarding `Cn1ncc2c(CN3CCc4[nH]c(=O)c(C(=O)NC/C=C/S(=O)(=O)c5ccccc5)cc4C3)cccc21` [Example 121, N-[(2E)-3-(benzenesulfonyl)prop-2-en-1-yl]-6-[(1-methyl-1H-indazol-4-yl)methyl]-2-oxo-1,2,5,6,7,8-hexahydro-1,6-naphthyridine-3-carboxamide], the IC50 in assay [1] was at most 10000 nM; with NF-κB signaling pathway it was at most 1000 nM; in assay [2], at most 100 nM.

On to `N=S(=O)(/C=C/CNC(=O)c1cc2c([nH]c1=O)CCN(C(=O)OCC1CC1)C2)c1ccc(F)cc1` (stereo not drawn) [Example 68, cyclopropylmethyl 3-{[(2E)-3-[(4-fluorophenyl)(imino)oxo-A*-sulfanyl]prop-2-en-1-yl]carbamoyl}-2-oxo-1,2,5,6,7,8-hexahydro-1,6-naphthyridine-6-carboxylate], for which the IC50 in assay [1] was at most 10000 nM; in the assay on NF-κB signaling pathway, at most 10000 nM; in assay [2] it was at most 100 nM.

With `O=C(NC/C=C/S(=O)(=O)c1ccc(Cl)cc1)c1cc2c([nH]c1=O)CCN(C(=O)OCC(F)F)C2` [Example 96, 2,2-difluoroethyl 3-{[(2E)-3-(4-chlorobenzenesulfonyl)prop-2-en-1-yl]carbamoyl}-2-oxo-1,2,5,6,7,8-hexahydro-1,6-naphthyridine-6-carboxylate], the IC50 is at most 10000 nM in assay [1], at most 1000 nM in the assay with NF-κB signaling pathway and at most 1000 nM in assay [2].

Regarding `COCCS(=O)(=O)N1CCc2[nH]c(=O)c(C(=O)NC/C=C/S(=O)(=O)c3ccccc3)cc2C1` [Example 103, N-[(2E)-3-(benzenesulfonyl)prop-2-en-1-yl]-6-(2-methoxyethanesulfonyl)-2-oxo-1,2,5,6,7,8-hexahydro-1,6-naphthyridine-3-carboxamide], the IC50 in assay [1] was at most 100000 nM; in the assay on NF-κB signaling pathway it was at most 100000 nM; in assay [2], at most 1000 nM.

Take `O=C(NC/C=C/S(=O)(=O)c1ccc(Cl)cc1)c1cc2c([nH]c1=O)CCCC2` [Example 21, N-[(2E)-3-(4-chlorobenzenesulfonyl)prop-2-en-1-yl]-2-oxo-1,2,5,6,7,8-hexahydroquinoline-3-carboxamide]: the values for the IC50 (in assay [1]; in the assay on NF-κB signaling pathway; in assay [2]) were at most 1000 nM, at most 100 nM and at most 100 nM, respectively.

Take `N=S(=O)(/C=C/CNC(=O)c1cc2c([nH]c1=O)CCN(C(=O)OCC1CC1)C2)c1ccccc1` (stereo not drawn) [Example 179, cyclopropylmethyl 3-{[(2E)-3-[imino(oxo)phenyl-λ^6-sulfanyl]prop-2-en-1-yl]carbamoyl}-2-oxo-1,2,5,6,7,8-hexahydro-1,6-naphthyridine-6-carboxylate]: the results for the IC50 (in assay [1]; in the assay with NF-κB signaling pathway; in assay [2]) were at most 10000 nM, at most 10000 nM and at most 1000 nM, respectively.

With `O=C(NC/C=C/S(=O)(=O)c1ccccc1)c1cc2c([nH]c1=O)CCN(C(=O)c1nc(C3CC3)cs1)C2` [Example 116, N-[(2E)-3-(benzenesulfonyl)prop-2-en-1-yl]-6-(4-cyclopropyl-1,3-thiazole-2-carbonyl)-2-oxo-1,2,5,6,7,8-hexahydro-1,6-naphthyridine-3-carboxamide], the IC50 was at most 10000 nM in assay [1], at most 10000 nM with NF-κB signaling pathway and at most 100 nM in assay [2].

Take `CC1(C(=O)N2CCc3[nH]c(=O)c(C(=O)NC/C=C/S(=O)(=O)c4ccccc4)cc3C2)CCC1` [Example 115, N-[(2E)-3-(benzenesulfonyl)prop-2-en-1-yl]-6-(1-methylcyclobutanecarbonyl)-2-oxo-1,2,5,6,7,8-hexahydro-1,6-naphthyridine-3-carboxamide]: the IC50 in assay [1] is at most 100000 nM; in the assay on NF-κB signaling pathway it was at most 100000 nM; in assay [2], at most 1000 nM.

For the compound `O=C(NC/C=C/S(=O)(=O)c1ccccc1)c1cc2c([nH]c1=O)CCN(C(=O)c1cnn(-c3ccccc3)n1)C2` [Example 112, N-[(2E)-3-(benzenesulfonyl)prop-2-en-1-yl]-2-oxo-6-(2-phenyl-2H-1,2,3-triazole-4-carbonyl)-1,2,5,6,7,8-hexahydro-1,6-naphthyridine-3-carboxamide], the values for the IC50 (in assay [1]; in the assay on NF-κB signaling pathway; in assay [2]) were at most 10000 nM, at most 10000 nM and at most 1000 nM, respectively.

With `COc1ccc(S(=N)(=O)/C=C/CNC(=O)c2cc3c([nH]c2=O)CCC(C(C)C)C3)cc1F` (stereo not drawn) [Example 144, N-[(2E)-3-[(3-fluoro-4-methoxyphenyl)(imino)oxo-λ^6-sulfanyl]prop-2-en-1-yl]-2-oxo-6-(propan-2-yl)-1,2,5,6,7,8-hexahydroquinoline-3-carboxamide], the IC50 (in assay [1]; in the assay with NF-κB signaling pathway) was at most 1000 nM each time.

Regarding `CCOc1ccc(S(=N)(=O)/C=C/CNC(=O)c2cc3c([nH]c2=O)CCCC3)cc1` (stereo not drawn) [Example 62, N-[(2E)-3-[(4-ethoxyphenyl)(imino)oxo-λ^6-sulfanyl]prop-2-en-1-yl]-2-oxo-1,2,5,6,7,8-hexahydroquinoline-3-carboxamide], the IC50 (in assay [1]; in the assay on NF-κB signaling pathway) was at most 1000 nM throughout.

Take `COc1ccc(S(=N)(=O)/C=C/CNC(=O)c2cc3c([nH]c2=O)CCCC3)cc1` (stereo not drawn) [Example 57, N-[(2E)-3-[imino(4-methoxyphenyl)oxo-λ^6-sulfanyl]prop-2-en-1-yl]-2-oxo-1,2,5,6,7,8-hexahydroquinoline-3-carboxamide]: the IC50 (in assay [1]; in the assay on NF-κB signaling pathway) was at most 1000 nM throughout.

For the compound `CN(C)c1ccc(S(=N)(=O)/C=C/CNC(=O)c2cc3c([nH]c2=O)CCCC3)cc1` (stereo not drawn) [Example 141, N-[(2E)-3-{[4-(dimethylamino)phenyl](imino)oxo-λ^6-sulfanyl}prop-2-en-1-yl]-2-oxo-1,2,5,6,7,8-hexahydroquinoline-3-carboxamide], the IC50 (in assay [1]; with NF-κB signaling pathway) was at most 1000 nM throughout.

For the compound `CC(C)(C)c1ccc(S(=N)(=O)/C=C/CNC(=O)c2cc3c([nH]c2=O)CCCC3)cc1` (stereo not drawn) [Example 61, N-[(2E)-3-[(4-tert-butylphenyl)(imino)oxo-λ^6-sulfanyl]prop-2-en-1-yl]-2-oxo-1,2,5,6,7,8-hexahydroquinoline-3-carboxamide], the IC50 (in assay [1]; in the assay with NF-κB signaling pathway) was at most 1000 nM throughout.

For `CC(C)(C)c1ccc(S(=O)(=O)/C=C/CNC(=O)c2cc3c([nH]c2=O)CCCC3)cc1` [Example 50, N-[(2E)-3-(4-tert-butylbenzenesulfonyl)prop-2-en-1-yl]-2-oxo-1,2,5,6,7,8-hexahydroquinoline-3-carboxamide], the half-inhibitory concentration (IC50) (with NF-κB signaling pathway; in assay [2]) was at most 10000 nM in each case.
